Bridge positions count the residues as written; N and C are the ends. Square brackets hold non-standard residues; d marks the D form. Peptide text beside a SMILES is read from it. Asu = N[C@@H](CCCCCC(=O)O)C(=O)O; AllylGly = C=CC[C@H](N)C(=O)O; GABA = NCCCC(=O)O

The target in the first assay is T1, Prostate-specific antigen (Homo sapiens) (UniProt P07288).
T1 sequence (whole entry): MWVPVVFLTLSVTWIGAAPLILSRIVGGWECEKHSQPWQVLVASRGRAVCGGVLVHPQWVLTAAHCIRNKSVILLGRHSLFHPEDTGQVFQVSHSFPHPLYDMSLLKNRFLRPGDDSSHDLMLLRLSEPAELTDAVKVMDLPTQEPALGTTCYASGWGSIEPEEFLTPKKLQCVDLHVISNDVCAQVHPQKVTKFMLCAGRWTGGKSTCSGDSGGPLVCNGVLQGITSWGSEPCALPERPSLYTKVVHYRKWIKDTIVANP
Nature of the assay: Stimulation of KLK3 (unknown origin) using S-2586 as substrate at 14 uM after 30 mins by spectrophotometric assay relative to control.
On to `CC(C)C[C@@H]1NC(=O)[C@H](Cc2ccc(O)cc2)NC(=O)[C@H](CC(=O)O)NC(=O)[C@H](Cc2ccc(O)cc2)NC(=O)[C@H](CC(N)=O)NC(=O)[C@H](Cc2cnc[nH]2)NC(=O)[C@H](C)NC(=O)[C@H](Cc2ccccc2)NC(=O)[C@H](C(C)C)NC(=O)CC/C=C/C[C@@H](C(=O)O)NC(=O)[C@H](C(C)C)NC1=O`, for which the Activity is 160%. For the molecule `CC(C)C[C@@H]1NC(=O)[C@H](Cc2ccc(O)cc2)NC(=O)[C@H](CC(=O)O)NC(=O)[C@H](Cc2ccc(O)cc2)NC(=O)[C@H](CC(N)=O)NC(=O)[C@H](Cc2cnc[nH]2)NC(=O)[C@H](C)NC(=O)[C@H](Cc2ccccc2)NC(=O)[C@H](C(C)C)NC(=O)[C@@H](N)CCCC[C@@H](C(=O)O)NC(=O)[C@H](C(C)C)NC1=O`, the Activity is 250%. Same read-out and setting: with `CC(C)C[C@@H]1NC(=O)[C@H](Cc2ccc(O)cc2)NC(=O)[C@H](CC(=O)O)NC(=O)[C@H](Cc2ccc(O)cc2)NC(=O)[C@H](CC(N)=O)NC(=O)[C@H](Cc2cnc[nH]2)NC(=O)[C@H](C)NC(=O)[C@H](Cc2ccccc2)NC(=O)[C@H](C(C)C)NC(=O)[C@@H](N)CSSC[C@@H](C(N)=O)NC(=O)[C@H](C(C)C)NC1=O` (H-CVFAHNYDYLVC-NH2; disulfide 1-12) the figure was 360%; with `CC(C)C[C@@H]1NC(=O)[C@H](Cc2ccc(O)cc2)NC(=O)[C@H](CC(=O)O)NC(=O)[C@H](Cc2ccc(O)cc2)NC(=O)[C@H](CC(N)=O)NC(=O)[C@H](Cc2cnc[nH]2)NC(=O)[C@H](C)NC(=O)[C@H](Cc2ccccc2)NC(=O)[C@H](C(C)C)NC(=O)[C@@H](N)C/C=C/C[C@@H](C(=O)O)NC(=O)[C@H](C(C)C)NC1=O` (H-[AllylGly]VFAHNYDYLV[AllylGly]-OH; staple (E) 1-12), 160%. Same read-out and setting: with `CC(C)C[C@@H]1NC(=O)[C@H](Cc2ccc(O)cc2)NC(=O)[C@H](CC(=O)O)NC(=O)[C@H](Cc2ccc(O)cc2)NC(=O)[C@H](CC(N)=O)NC(=O)[C@H](Cc2cnc[nH]2)NC(=O)[C@H](C)NC(=O)[C@H](Cc2ccccc2)NC(=O)[C@H](C(C)C)NC(=O)CCCCC[C@@H](C(=O)O)NC(=O)[C@H](C(C)C)NC1=O` (VFAHNYDYLV[Asu]-OH; lactam N-11) the figure was 170%.

For the next assay, the target named is T1, Prostate-specific antigen (Homo sapiens). Nature of the assay: Stimulation of KLK3 (unknown origin) relative to control.
Molecule `CC(C)C[C@@H]1NC(=O)[C@H](Cc2ccc(O)cc2)NC(=O)[C@H](CC(=O)O)NC(=O)[C@H](Cc2ccc(O)cc2)NC(=O)[C@H](CC(N)=O)NC(=O)[C@H](Cc2cnc[nH]2)NC(=O)[C@H](C)NC(=O)[C@H](Cc2ccccc2)NC(=O)[C@H](C(C)C)NC(=O)CCCNC(=O)[C@H](CC(=O)O)NC(=O)[C@H](C(C)C)NC1=O` (cyclo(AHNYDYLVD[GABA]VF)) yielded an Activity of 250%.

(Values after ChEMBL document CHEMBL3108718, “Replacement of the Disulfide Bridge in a KLK3-Stimulating Peptide Using Orthogonally Protected Building Blocks” (ACS Med Chem Lett, 2014).)
